# Source: patent US12054509B2, “Antimicrobial compounds, compositions, and uses thereof” (Lakewood Amedex, Inc., priority 2017, dated 2024)
# Experiments:
# P. aeruginosa = assay: MIC broth microdilution (CLSI) at incremental pH, P. aeruginosa; type: cell-based; details: Pseudomonas aeruginosa
# Procedure: (§1) MIC testing is conducted using the broth (Mueller Hinton Broth) microdilution procedures relevant to each organism group as established by the Clinical and Laboratory Standards Institute (CLSI; 3-7). MIC plates are prepared in accordance with CLSI (3-7). To prepare the test plates, automated liquid handlers are used to conduct serial dilutions and liquid transfers. Automated liquid handlers utilized in this study include the Multidrop 384 (Labsystems, Helsinki, Finland) and the Biomek 2000 (Beckman Coulter, Fullerton CA). The solution is diluted to desired pH using 1 M Citric Acid or 1 M NaOH buffer. A standardized inoculum of each test organism is prepared per CLSI methods (3, 5-7) to equal a 0.5 McFarland standard in the appropriate media followed by an additional 1:20 dilution (1:10 for anaerobes).
# (§2) The plates are then inoculated with 10 μL of the diluted 0.5 McFarland suspension using the Biomek 2000 from low to high drug concentration, resulting in a final concentration of approximately 5×10^5 CFU/mL per well. An un-inoculated plate is incubated for the purpose of assessing solubility of the drug in the test media. The plates are stacked 3 to 4 high, covered with a sterile lid on the top plate, and incubated for 18 to 24 hours according to CLSI. The MIC is recorded as the lowest concentration of respective compound that inhibited visible growth of the organism.
# E. coli = assay: MIC broth microdilution (CLSI) at incremental pH, E. coli; type: cell-based; details: Escherichia coli
# Procedure: as §1, §2
# pKa measurement = type: physicochemical
# Candida Albicans = assay: MIC against a single isolate (Example 26); type: cell-based; details: single isolate, read-out: C. albicans MIC
# Procedure: (§3) Bacterial strains evaluated in this study include Escherichia coli, Klebsiella spp, Serratia marcescens, Proteus mirabilis/vulgaris, Citrobacter spp, Providencia spp, Morganella morganii, Pseudomonas aeruginosa, Staphylococcus aureus (MRSA only), and Enterococcus faecalis. Nu-8 test solutions are adjusted to pH 3.5 with citric acid, and MIC is evaluated per the CLSI methods in Mueller-Hinton broth supplemented accordingly to facilitate growth of specific strains.
# (§4) MIC was determined as per Example 9 using LAI-101, LAI-102, Nu-10, LAI-105, LAI-106, Nu-3, and Nu-8 against a single isolate of Escherichia coli. Pseudomonas aeruginosa, Staphylococcus aureus (MRSA only), and Candida Albicans. For all microbe species, the LAI-101, LAI-102, Nu-10, LAI-105, and LAI-106 all perform at least as well as, and in many experiments better than, Nu-8 and Nu-3, which are both already quite active compounds.
# [1] = test system: Staphylococcus aureus (MRSA only); assay: MIC against a single isolate (Example 26); type: cell-based; details: single isolate, read-out: S. aureus MIC
# Procedure: as §3, §4
# Escherichia coli = assay: MIC against a single isolate (Example 26); type: cell-based; details: single isolate, read-out: E. coli MIC
# Procedure: as §3, §4
# Pseudomonas aeruginosa = assay: MIC against a single isolate (Example 26); type: cell-based; details: single isolate, read-out: P. aeruginosa MIC
# Procedure: as §3, §4
# Haemophilus influenzae = assay: MIC at pH 3.5 (CLSI, Mueller-Hinton broth); type: cell-based; details: 5 isolates
# bacterial strains = assay: MIC at pH 3.5 in human and mouse urine; type: cell-based
# Description: Bacterial strains evaluated in this study include Escherichia coli, Klebsiella spp, Serratia marcescens, Proteus mirabilis/vulgaris, Citrobacter spp, Providencia spp, Morganella morganii, Pseudomonas aeruginosa, Staphylococcus aureus (MRSA only), and Enterococcus faecalis. […]
# E. coli ATCC25922 = assay: Urinary tract infection model in Sprague-Dawley rats, transurethral treatment (Example 12); type: in vivo; details: 60 min
# Procedure: Female Sprague-Dawley rats (n=6/group) are intraurethrally infected with the pre determined inoculum size of E. coli. At the specified time following infection with (depending on the in vivo growth curve), the animals are anaesthetized (ketamine/xylazine) and treated by transurethral administration with neutral saline (group 1), saline pH 3.5 adjusted with phosphoric acid (group 2), test compound Nu-8 pH 3.5 at 103 and 207 mg/kg (groups 3 and 4, respectively). When adjusting pH, the volume of phosphoric acid added are monitored and the final concentration of the pH adjusted dose solution are subsequently determined. The goal is to have the final concentration after pH adjustment within 10% of the desired dose so the final concentration after pH adjustment are reported. Volume of administration will be 300 μL. TABLE 10 (Animal Challenge and Treatment Schedule) summarizes the study groups.
# Two hours prior to each infection animals are water deprived. Each animal is infected twice with 24 hrs difference by transurethral administration of 300 μL of bacterial suspension under light ketamine and xylazine anaesthesia. Prior to infection, urine is evacuated by digital pressure, cannula is gently inserted into the bladder via urethra and 300 μL of bacterial suspension is inserted into the bladder. […]
# [2] = test system: E. coli ATCC 25922 or P. aeruginosa K2732; assay: Bacterial cytological profiling (Example 6), cell viability, strain not stated; type: cell-based; details: within minutes, from initial 10^9 CFU/mL
# Procedure: This bacterial cytological profiling (BCP) study uses methods and materials described previously by Nonejuie, P., Burkart, M., Poglianoa, K., Pogiano, J. (2013). Bacterial cytological profiling rapidly identifies the cellular pathways targeted by antibacterial molecules. Proc. Natl. Acad. Sci. U.S.A. 110(40):16169-16174. doi: 10.1073/pnas.1311066110.
# Wild type strains of E. coli ATCC 25922 or P. aeruginosa K2732 are grown in rich media (unbuffered 2× Lysogeny broth [LB]) at 30 C to an OD600˜0.4. These cultures are then split and each sample treated with the appropriate concentration of Nu-8 in unbuffered or buffered LB (final mixture OD600˜0.1). Cells exposed without Nu-8 are buffered to pH 4 with phosphoric acid.
# The BCP is performed in LB media buffered to pH 4. The minimum inhibitory concentration (MIC) is measured for Nu-3, Nu-4, Nu-5, and Nu-8 against each bacterial strain. As one of ordinary skill in the art understands, minimum inhibitory concentrations are the lowest concentration of an antimicrobial that will inhibit the visible growth of a microorganism after overnight incubation. […] Cellular viability is assayed at three time points (5 minutes and 4 and 24 h following the onset of treatment).
structure (smiles),measurement,setting,value
"CCCCOP(=O)(O)OC[C@H]1O[C@@H](n2ccc(N)nc2=O)C[C@@H]1OP(=O)(O)OCCCC [Nu-8, sodium ((2R,3S,5R)-5-(4-amino-2-oxopyrimidin-1(2H)-yl)-3-((butoxyoxidophosphor-yl)oxy)tetrahydrofuran-2-yl)methyl butyl phosphate]",MIC,P. aeruginosa; pH 1,9.38 mg/mL
same,MIC,P. aeruginosa; pH 3,18.8 mg/mL
same,MIC,P. aeruginosa; pH 4,37.5 mg/mL
same,MIC,P. aeruginosa; pH 5,75 mg/mL
same,MIC,P. aeruginosa; pH 7,> 75 mg/mL
same,MIC,E. coli; pH 1,9.8 mg/mL
same,MIC,E. coli; pH 3,37.5 mg/mL
same,MIC,E. coli; pH 4,75 mg/mL
same,MIC,E. coli; pH 5,> 75 mg/mL
same,MIC,E. coli; pH 7,> 75 mg/mL
same,pKa,pKa measurement,3.2
same,MIC,Candida Albicans,> 50 mg/mL
same,MIC,[1],> 50 mg/mL
same,MIC,Escherichia coli,> 50 mg/mL
same,MIC,Pseudomonas aeruginosa,> 50 mg/mL
same,MIC,Haemophilus influenzae,4.69 to 9.38 mg/mL
same,MICs in human and mouse urine,bacterial strains,comparable to those of Nu-8 in Mueller Hinton broth
same,mean CFU per mL of bladder tissue (tissue plus urine),E. coli ATCC25922; 103 mg/kg pH 3.5 transurethral,5.53 Log 10 CFUs/mL bladder tissue
same,mean CFU per mL of bladder tissue (tissue plus urine),E. coli ATCC25922; 207 mg/kg pH 3.5 transurethral,4.60 Log 10 CFUs/mL bladder tissue
same,cell viability,[2],< 10^2 CFU/mL
